Reference: patent US6492137B1, “Response element compositions and assays employing same” (The Salk Institute for Biological Studies, priority 1989, dated 2002)

How the values were obtained:
[1] = biological target: T1, vitamin D receptor (VD3R) (Homo sapiens, UniProt P11473); experiment: Cotransfection of vitamin D receptor with construct βRE1 in CV-1 cells; assay type: cell-based; conditions: cognate ligand
T1 construct: expressed in transfected cells; host or cells: CV-1 (monkey kidney)
T1 sequence (P11473 1-427): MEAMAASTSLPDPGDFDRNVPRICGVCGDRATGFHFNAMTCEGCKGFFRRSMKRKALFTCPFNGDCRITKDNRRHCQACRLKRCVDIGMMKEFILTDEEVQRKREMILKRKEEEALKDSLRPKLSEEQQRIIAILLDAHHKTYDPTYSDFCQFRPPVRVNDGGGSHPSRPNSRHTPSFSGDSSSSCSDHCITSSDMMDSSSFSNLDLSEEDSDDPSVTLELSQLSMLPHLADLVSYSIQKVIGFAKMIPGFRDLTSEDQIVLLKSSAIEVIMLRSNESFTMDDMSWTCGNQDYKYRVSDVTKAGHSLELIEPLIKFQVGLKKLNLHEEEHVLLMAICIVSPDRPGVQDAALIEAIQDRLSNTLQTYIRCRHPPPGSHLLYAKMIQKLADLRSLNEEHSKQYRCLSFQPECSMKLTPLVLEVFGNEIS
Excerpt: (§1) Inspection of the sequences of βRE1, βRE2, and βRE3 (see FIG. 2b) identifies a tandem repeat of the 6 bp motif. The center to center separation of 11 bp between these repeats is one turn of the DNA helix. […] Apparently, a single half site element of the RARβ gene would reciprocally be responsive to the TR, ER, and/or other members of the receptor superfamily.

TR = experiment: Cotransfection of TR with construct βRE1 in CV-1 cells; assay type: cell-based; conditions: cognate ligand
Excerpt: as §1

ER = biological target: T2, ER (Homo sapiens, UniProt P03372); experiment: Cotransfection of ER with construct βRE1 in CV-1 cells; assay type: cell-based; conditions: absence or addition of the appropriate ligand
T2 construct: expressed in transfected cells; host or cells: CV-1 (monkey kidney)
T2 sequence (P03372 1-595): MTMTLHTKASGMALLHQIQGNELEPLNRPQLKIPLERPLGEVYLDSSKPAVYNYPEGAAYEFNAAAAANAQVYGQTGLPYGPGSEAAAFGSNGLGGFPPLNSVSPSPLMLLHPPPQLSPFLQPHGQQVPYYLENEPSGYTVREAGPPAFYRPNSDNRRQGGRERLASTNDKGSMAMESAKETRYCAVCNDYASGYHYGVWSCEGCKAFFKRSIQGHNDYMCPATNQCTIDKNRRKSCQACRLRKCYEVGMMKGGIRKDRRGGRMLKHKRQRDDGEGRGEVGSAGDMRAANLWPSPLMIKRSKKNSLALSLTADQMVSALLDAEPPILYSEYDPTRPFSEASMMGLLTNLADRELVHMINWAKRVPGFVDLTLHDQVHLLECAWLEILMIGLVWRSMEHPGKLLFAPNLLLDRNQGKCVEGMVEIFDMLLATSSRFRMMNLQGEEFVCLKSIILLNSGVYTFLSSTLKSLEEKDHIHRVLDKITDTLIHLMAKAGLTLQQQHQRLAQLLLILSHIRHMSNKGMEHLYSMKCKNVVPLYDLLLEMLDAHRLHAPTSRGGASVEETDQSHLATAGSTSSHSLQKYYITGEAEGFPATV
Excerpt: as §1

GR = biological target: T3, GR (Homo sapiens, UniProt P04150); experiment: Cotransfection of GR with construct βRE1 in CV-1 cells; assay type: cell-based; conditions: absence or addition of the appropriate ligand
T3 construct: expressed in transfected cells; host or cells: CV-1 (monkey kidney)
T3 sequence (P04150 1-777): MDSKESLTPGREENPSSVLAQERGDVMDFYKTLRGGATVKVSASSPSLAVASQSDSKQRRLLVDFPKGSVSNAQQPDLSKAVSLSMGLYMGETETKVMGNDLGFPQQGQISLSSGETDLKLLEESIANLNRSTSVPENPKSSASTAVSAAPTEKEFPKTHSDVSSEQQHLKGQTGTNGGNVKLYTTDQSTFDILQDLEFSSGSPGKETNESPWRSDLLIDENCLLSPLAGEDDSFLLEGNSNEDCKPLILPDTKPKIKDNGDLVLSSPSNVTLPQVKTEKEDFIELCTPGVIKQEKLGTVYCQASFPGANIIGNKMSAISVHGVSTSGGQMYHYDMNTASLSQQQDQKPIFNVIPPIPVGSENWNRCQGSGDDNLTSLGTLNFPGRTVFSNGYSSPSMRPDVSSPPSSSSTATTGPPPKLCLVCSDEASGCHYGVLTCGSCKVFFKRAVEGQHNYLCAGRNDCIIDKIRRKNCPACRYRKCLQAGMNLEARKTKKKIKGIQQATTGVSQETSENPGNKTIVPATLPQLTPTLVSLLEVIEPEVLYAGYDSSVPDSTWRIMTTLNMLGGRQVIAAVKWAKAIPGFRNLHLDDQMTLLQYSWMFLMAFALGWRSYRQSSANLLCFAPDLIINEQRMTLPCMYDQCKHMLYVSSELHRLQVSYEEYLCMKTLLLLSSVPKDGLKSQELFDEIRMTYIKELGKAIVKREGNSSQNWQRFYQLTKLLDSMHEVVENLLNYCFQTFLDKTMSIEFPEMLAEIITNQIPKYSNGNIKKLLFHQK
Excerpt: as §1

endogenous RA receptor = experiment: Delta-MTV-CAT constructs, RA induction in CV-1 cells without cotransfected RAR expression vector; assay type: cell-based, monkey
Protocol: Cells were transfected in 10 cm dishes with 10 μg of DNA containing 5 μg of reporter plasmid, 1-2 μg of either RSV-LUC (a), or RSV-βGAL or pCH110 (c and d), pGEM4 as carrier DNA, and for the experiments shown in a and d, 1 μg of RSV-RAR expression vector or the same amount of an RSV vector generating a nonsense transcript. Cells were harvested 1 day after addition of retinoic acid. All CAT assays represent equivalent amounts of β-galactosidase activity; β-GAL assays were normalized to luciferase activity.

RAR = biological target: T4, RAR (Homo sapiens, UniProt P10276); experiment: Delta-MTV constructs, RA induction in CV-1 cells with cotransfected RAR expression vector; assay type: cell-based; conditions: Delta-MTV-CAT constructs; CV-1 cells
T4 construct: expressed in transfected cells; host or cells: CV-1 (monkey kidney)
T4 sequence (P10276 1-462): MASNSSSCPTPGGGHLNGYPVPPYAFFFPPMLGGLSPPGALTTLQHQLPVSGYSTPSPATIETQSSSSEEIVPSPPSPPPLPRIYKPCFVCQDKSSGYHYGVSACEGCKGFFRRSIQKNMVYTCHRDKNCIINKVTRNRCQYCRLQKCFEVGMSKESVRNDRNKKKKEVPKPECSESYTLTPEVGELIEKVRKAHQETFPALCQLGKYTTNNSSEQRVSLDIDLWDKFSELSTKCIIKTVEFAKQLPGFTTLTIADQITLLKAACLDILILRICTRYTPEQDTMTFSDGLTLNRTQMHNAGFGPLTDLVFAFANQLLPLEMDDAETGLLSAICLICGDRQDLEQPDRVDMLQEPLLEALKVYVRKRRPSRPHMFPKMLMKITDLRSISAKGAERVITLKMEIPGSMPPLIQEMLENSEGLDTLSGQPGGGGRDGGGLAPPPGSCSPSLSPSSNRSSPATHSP

VDR = biological target: T5, VDR (Homo sapiens, UniProt P11473); experiment: Gel retardation DNA-binding assay with VDR-expressing COS cell extracts; set-up: expressed in transfected cells; host or cells: COS cells (whole-cell extract); conditions: VDR COS cell extract
T5 sequence (P11473 1-427): T1 sequence (P11473 1-427)
Protocol: For DNA binding assays, COS cells were cultured in DMEM with 10% calf bovine serum and transfected by the calcium phosphate method with 20 μg of the pCMX receptor expression plasmid for 6 hours followed by a glycerol shock. After incubating the transfected COS cells for another 48 hours, the cells were harvested to prepare extracts for the DNA binding assay, carried out as described by Damm et al., Nature 339: 593-597 (1989). The extracts were made in 20 mM HEPES (pH 7.4), 0.4 M KCl, 2 mM DTT and 20% glycerol. A similar method was employed to prepare a whole cell extract from F9 stem cells. For the binding, 5 μg (COS) or 10 μg (F9) of proteins was incubated on ice for 20 minutes, first in 20 mM HEPES, 80 mM KCl, 1 mM DTT, 0.1% NP40, 2.5 μg of poly dI/dC, and 10% glycerol (cold competitor oligonucleotides, when included, were added during this pre-incubation period). Then 40 fmole of ^32P-labeled oligonucleotide probe (1-2×10^5 cpm, prepared by filling-in reaction using Klenow polymerase in the presence of α-^32P-dCTP) was added to the reaction mixture, followed by incubation at room temperature for 30 minutes. The receptor-DNA complexes were resolved by electrophoresis through 5% polyacrylamide gel containing 5% glycerol at 6 V/cm at room temperature.
Finally, in vitro DNA-binding assays were carried out with COS cell extracts containing one of these receptor proteins.

RARα = biological target: T6, RARα (Homo sapiens, UniProt P10276); experiment: ΔSV-CAT reporter cotransfection assay in CV-1 cells with RARα expression plasmid, ±RA; assay type: cell-based; set-up: expressed in transfected cells; host or cells: CV-1 (monkey kidney); conditions: RA 1 μM
T6 sequence (P10276 1-462): T4 sequence (P10276 1-462)
Excerpt: Receptor expression plasmids used in the following cotransfection assays have been described previously (pRShTRβ [see Thompson, et al., Proc. Natl. Acad. Sci. U.S.A. 86: 3494-3498 (1989)]; pRShRARα [see Giguere, et al., Nature 330: 624-629 (1987)]; pRShRARβ and pRshRARγ [see Ishikawa, et al., Mol. Endocrinol, 4: 837-844 (1990)]; and pRShVDR, [Schule, et al., Cell 61: 497-504 (1990)]. A basal reporter plasmid ΔSV-CAT was constructed by replacing the TK promoter in TK-CAT [Damm, et al., Nature 339: 593-597 (1989)] with the SphI-HindIII fragment of the SV40 early promoter. All of the recombinant CAT reporter plasmids used herein harbor a single copy of the indicated oligonucleotides at the unique HindIII site upstream of the SV40 promoter. Identity of the inserted oligonucleotides was confirmed by sequencing. To improve production of receptor proteins in COS cells, a new eukaryotic expression vector pCMX was prepared by modifying the plasmid CDM8 [Seed, B., Nature 329: 840-842 (1987)]. The CDM8 was cut with MluI and StuI in order to release the DNA fragment encoding the CMV/T7 promoter, SV40 small t intron/poly A signal, polyoma virus enhancer/origin, and SV40 enhancer/origin. The resulting fragment was ligated to a larger fragment of PvuII-digested PUC19. An internal deletion was introduced between unique BamHI and BclI sites present in the DCM8 portion. The stuffer sequence flanked by XbaI sites was replaced with a synthetic polylinker coding for 5′-KpnI/Asp718-EcoRV-BamHI -MscI-NheI-3′, followed by a stretch of 5′-[…]-3′ (SEQ ID NO:48) which can function as a universal termination signal for protein translation. The coding sequence of the luciferase [de Wet, et al., Mol. Cell. Biol. 7: 725-737 (1987)] and human TRβ, RARα, and VDR was placed in the polylinker region of the pCMX, generating pCMX-LUC, Pcmx-Htrβ, pCMX-hRARα, and pCMX-hVDR, respectively. The translation start site of the RARα was modified to […] by attaching the synthetic linker encoding a consensus translation start signal [Hollenberg, et al., Cell 55: 899-906 (1988)]. […]

| Substance | activation with cotransfected vitamin D receptor, fold less [1] | activation with cotransfected TR, fold less (TR) | activation with cotransfected ER (ER) | activation with cotransfected GR (GR) | RA-dependent induction in the absence of cotransfected RAR expression vector (endogenous RA receptor) | increase of induction by cotransfection of RAR-alpha expression vector (RAR) | VDR binding to labeled oligonucleotide probe (VDR) | RA response (in words) (RARα) |
| --- | --- | --- | --- | --- | --- | --- | --- | --- |
| 5′-AAGCTTAAG-GGTTCA-CCGAA-AGTTCA-CACGCATATATTAGCTT-3′ (SEQ ID NO:5) (AAGCTTAAGGGTTCACCGAAAGTTCACTCGCATATATTAGCTT; DNA, backbone not given here) [βRE1, oligonucleotide including the β retinoic acid response element] | 10- to 20 fold | 10- to 20 fold | failed to result in appreciable activation | failed to result in appreciable activation | robust RA-dependent induction | two-fold |  |  |
| DR-3: perfect tandem repeat of AGGTCA hexamers separated by 3 nucleotides (SEQ ID NO:25) (AGCTTCAGGTCAAGGAGGTCAGAGAGCT; DNA, backbone not given here; double-stranded DNA response element with agct overhangs, cloned into reporter) |  |  |  |  |  |  | specific protein-DNA complex | clear activity |
